In the kinase profiling compilation of Christmann-Franck et al. (2016):

Assays:
Assay in all cases: Caliper, Mobility shift assay off-chip
[1] = tested on: ABL1 (human), P00519 [Q252H]
ABL2 (human) = ABL2 (human) (UniProt P42684)
AKT1 (human) = AKT1 (human) (UniProt P31749)
AKT2 (human) = AKT2 (human) (UniProt P31751)
AKT3 (human) = AKT3 (human) (UniProt Q9Y243)
AURKB (human) = AURKB (human) (UniProt Q96GD4)
BMX (human) = BMX (human) (UniProt P51813)
CAMK2D (human) = CAMK2D (human) (UniProt Q13557)
Sequence of CAMK2D (human) (Q13557 whole entry, looked up): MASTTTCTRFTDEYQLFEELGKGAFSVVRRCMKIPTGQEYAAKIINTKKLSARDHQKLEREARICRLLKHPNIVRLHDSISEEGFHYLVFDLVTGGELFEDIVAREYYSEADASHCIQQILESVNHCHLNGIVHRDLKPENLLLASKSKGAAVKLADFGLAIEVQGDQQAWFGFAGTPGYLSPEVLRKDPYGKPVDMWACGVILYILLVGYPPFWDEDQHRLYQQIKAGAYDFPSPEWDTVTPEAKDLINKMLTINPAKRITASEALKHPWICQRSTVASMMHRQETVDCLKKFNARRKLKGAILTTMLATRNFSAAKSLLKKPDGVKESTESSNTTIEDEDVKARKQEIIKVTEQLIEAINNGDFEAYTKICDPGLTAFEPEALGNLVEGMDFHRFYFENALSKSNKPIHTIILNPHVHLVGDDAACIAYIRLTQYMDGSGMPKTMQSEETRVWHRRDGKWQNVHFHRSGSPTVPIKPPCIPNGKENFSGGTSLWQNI

CAMK2G (human) = CAMK2G (human) (UniProt Q13555)
CDK2 (human) = CDK2 (human) (UniProt P24941)
EGFR (human) = EGFR (human) (UniProt P00533); settings: compound 0.1 µM
FER (human) = FER (human) (UniProt P16591); settings: compound 0.1 µM
[2] = tested on: FLT3 (human), P36888 [D835Y]
IKBKB (human) = IKBKB (human) (UniProt O14920)
IRAK4 (human) = IRAK4 (human) (UniProt Q9NWZ3)
Sequence of IRAK4 (human) (Q9NWZ3 whole entry, looked up): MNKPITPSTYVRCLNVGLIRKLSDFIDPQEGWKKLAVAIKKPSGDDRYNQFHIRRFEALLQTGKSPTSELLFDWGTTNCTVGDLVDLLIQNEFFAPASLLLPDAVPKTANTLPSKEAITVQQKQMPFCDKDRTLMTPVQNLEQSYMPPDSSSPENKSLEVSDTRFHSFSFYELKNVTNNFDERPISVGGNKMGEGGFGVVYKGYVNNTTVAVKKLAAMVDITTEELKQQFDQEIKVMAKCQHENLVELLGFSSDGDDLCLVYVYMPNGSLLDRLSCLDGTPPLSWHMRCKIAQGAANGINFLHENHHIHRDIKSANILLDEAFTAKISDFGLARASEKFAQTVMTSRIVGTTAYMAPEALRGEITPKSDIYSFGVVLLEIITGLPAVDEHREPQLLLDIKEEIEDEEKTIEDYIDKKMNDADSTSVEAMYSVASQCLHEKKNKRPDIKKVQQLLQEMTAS

LYN (human) = LYN (human) (UniProt P07948)
Sequence of LYN (human) (P07948 whole entry, looked up): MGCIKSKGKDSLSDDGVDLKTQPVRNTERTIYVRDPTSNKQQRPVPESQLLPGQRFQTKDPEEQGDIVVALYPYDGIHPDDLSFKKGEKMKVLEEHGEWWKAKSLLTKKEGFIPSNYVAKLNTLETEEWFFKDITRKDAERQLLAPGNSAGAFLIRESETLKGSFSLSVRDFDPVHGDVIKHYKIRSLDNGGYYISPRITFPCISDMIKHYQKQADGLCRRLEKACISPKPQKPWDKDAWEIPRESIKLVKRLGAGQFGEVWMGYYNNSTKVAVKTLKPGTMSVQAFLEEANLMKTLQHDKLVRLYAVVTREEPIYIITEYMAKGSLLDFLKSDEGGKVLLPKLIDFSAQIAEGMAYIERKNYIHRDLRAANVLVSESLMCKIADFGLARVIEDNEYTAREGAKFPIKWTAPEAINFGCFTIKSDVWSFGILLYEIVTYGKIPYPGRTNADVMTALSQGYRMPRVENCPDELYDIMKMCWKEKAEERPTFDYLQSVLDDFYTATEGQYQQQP

MAPK12 (human) = MAPK12 (human) (UniProt P53778)
Sequence of MAPK12 (human) (P53778 whole entry, looked up): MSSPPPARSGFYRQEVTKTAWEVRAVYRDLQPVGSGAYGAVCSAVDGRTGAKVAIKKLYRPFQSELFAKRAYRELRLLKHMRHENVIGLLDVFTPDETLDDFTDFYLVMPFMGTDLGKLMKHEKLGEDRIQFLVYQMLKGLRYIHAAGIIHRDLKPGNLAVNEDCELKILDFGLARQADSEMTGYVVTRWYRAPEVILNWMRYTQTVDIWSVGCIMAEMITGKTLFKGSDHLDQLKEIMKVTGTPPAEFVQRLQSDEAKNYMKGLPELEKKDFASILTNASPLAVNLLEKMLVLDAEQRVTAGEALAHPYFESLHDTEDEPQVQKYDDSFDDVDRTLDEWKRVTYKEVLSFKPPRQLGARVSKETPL

MAPKAPK2 (human) = MAPKAPK2 (human) (UniProt P49137)
MAPKAPK3 (human) = MAPKAPK3 (human) (UniProt Q16644)
Sequence of MAPKAPK3 (human) (Q16644 whole entry, looked up): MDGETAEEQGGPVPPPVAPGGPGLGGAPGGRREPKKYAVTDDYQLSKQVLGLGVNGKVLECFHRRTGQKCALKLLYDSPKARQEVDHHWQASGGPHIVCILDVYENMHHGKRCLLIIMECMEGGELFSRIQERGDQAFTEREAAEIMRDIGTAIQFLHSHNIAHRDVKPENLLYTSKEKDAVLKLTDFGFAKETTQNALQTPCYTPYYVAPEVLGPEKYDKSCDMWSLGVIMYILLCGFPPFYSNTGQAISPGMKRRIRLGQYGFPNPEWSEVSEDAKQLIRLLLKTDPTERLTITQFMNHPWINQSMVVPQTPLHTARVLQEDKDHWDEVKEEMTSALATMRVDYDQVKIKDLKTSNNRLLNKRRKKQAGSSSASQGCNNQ

NEK2 (human) = NEK2 (human) (UniProt P51955)
PAK2 (human) = PAK2 (human) (UniProt Q13177)
Sequence of PAK2 (human) (Q13177 whole entry, looked up): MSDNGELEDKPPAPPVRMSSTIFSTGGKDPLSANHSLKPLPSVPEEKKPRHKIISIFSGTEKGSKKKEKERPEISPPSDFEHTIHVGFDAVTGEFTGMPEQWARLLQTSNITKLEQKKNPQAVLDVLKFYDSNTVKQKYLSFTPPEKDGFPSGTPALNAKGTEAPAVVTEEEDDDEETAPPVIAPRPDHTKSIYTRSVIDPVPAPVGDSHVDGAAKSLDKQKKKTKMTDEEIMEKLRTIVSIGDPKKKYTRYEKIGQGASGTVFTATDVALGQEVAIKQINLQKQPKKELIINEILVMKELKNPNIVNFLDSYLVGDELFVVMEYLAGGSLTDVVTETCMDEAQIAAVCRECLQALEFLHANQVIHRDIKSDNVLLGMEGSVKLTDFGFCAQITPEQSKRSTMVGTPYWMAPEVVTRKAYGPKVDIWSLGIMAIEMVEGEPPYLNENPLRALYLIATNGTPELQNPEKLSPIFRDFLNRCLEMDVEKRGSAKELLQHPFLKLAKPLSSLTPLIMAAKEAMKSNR

PIM1 (human) = PIM1 (human) (UniProt P11309)
PRKCA (human) = PRKCA (human) (UniProt P17252)
PRKCB1 (human) = PRKCB1 (human) (UniProt P05771); settings: compound 1.0 µM
PRKCB2 (human) = PRKCB2 (human) (UniProt P05771)
PRKCD (human) = PRKCD (human) (UniProt Q05655)
PRKCE (human) = PRKCE (human) (UniProt Q02156)
PRKD3 (human) = PRKD3 (human) (UniProt O94806)
RPS6KA1 KD1 KD2 (human) = RPS6KA1 KD1 KD2 (human) (UniProt Q15418)
RPS6KA2 KD1 KD2 (human) = RPS6KA2 KD1 KD2 (human) (UniProt Q15349)
SGK2 (human) = SGK2 (human) (UniProt Q9HBY8)
SRC (human) = SRC (human) (UniProt P12931)
Sequence of SRC (human) (P12931 whole entry, looked up): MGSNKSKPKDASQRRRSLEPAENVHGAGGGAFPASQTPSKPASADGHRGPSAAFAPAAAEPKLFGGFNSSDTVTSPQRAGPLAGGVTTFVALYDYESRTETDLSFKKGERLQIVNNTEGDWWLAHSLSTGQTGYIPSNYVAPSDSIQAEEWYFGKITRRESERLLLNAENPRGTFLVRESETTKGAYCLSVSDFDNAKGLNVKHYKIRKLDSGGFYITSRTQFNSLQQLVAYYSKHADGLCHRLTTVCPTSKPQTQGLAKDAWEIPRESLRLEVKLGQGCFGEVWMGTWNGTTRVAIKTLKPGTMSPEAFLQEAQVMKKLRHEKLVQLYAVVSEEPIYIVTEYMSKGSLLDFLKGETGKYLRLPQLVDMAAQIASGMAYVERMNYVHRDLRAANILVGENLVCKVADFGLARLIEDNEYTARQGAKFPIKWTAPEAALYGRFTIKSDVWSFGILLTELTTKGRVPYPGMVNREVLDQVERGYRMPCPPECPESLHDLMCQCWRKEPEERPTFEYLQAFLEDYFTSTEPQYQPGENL

STK3 (human) = STK3 (human) (UniProt Q13188)
SYK (human) = SYK (human) (UniProt P43405)

Sequence of BMX (human) (P51813 whole entry, looked up): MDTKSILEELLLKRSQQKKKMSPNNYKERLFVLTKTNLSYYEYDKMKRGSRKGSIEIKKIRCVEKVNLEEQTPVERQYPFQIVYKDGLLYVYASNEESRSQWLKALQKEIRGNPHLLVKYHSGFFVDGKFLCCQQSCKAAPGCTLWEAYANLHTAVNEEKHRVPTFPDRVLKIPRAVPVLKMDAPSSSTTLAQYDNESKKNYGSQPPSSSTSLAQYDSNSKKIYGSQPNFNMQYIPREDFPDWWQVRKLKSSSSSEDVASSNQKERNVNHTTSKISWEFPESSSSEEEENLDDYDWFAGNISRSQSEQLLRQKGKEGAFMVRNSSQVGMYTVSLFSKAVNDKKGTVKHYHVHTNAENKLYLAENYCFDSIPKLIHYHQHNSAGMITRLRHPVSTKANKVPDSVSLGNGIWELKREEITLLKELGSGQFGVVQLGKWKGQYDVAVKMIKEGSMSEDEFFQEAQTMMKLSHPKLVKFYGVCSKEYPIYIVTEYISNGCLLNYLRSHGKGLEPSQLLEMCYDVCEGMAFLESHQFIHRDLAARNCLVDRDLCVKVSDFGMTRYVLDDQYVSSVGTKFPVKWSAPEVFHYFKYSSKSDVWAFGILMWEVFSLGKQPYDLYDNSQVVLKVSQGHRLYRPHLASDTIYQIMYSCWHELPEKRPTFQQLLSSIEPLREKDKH
Sequence of AKT2 (human) (P31751 whole entry, looked up): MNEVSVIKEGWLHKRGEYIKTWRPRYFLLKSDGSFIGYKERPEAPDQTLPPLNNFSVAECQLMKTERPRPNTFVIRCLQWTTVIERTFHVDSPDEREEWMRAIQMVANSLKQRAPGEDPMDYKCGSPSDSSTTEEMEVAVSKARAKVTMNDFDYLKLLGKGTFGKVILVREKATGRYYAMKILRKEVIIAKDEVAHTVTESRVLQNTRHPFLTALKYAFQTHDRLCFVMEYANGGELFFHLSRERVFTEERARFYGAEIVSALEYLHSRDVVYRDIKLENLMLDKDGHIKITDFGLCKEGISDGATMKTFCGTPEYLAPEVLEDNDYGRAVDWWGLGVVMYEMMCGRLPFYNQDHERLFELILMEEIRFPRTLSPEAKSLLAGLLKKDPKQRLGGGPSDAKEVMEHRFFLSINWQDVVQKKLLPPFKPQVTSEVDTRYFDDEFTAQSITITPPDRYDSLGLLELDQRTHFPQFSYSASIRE
Sequence of AKT3 (human) (Q9Y243 whole entry, looked up): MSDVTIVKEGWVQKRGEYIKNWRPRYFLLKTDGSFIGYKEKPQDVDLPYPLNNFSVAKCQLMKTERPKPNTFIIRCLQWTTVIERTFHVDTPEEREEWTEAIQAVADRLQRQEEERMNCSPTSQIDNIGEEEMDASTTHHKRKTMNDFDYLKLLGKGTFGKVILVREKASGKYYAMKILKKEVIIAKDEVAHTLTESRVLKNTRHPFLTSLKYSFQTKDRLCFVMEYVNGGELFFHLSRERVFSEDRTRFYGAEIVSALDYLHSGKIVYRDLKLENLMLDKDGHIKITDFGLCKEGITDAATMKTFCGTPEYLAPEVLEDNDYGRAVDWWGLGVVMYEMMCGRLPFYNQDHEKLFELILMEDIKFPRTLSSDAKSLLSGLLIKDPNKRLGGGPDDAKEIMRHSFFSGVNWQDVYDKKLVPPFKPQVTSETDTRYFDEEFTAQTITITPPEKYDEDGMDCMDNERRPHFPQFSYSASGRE

Cn1cc(-c2cnc3ccc4ccc(CS(=O)(=O)CCc5ccccn5)cc4c(=O)c3c2)cn1
inhibition ([1]; compound 0.1 µM): 4.6% | inhibition ([1]; compound 1.0 µM): 9.3% | inhibition (ABL2 (human); compound 0.1 µM): -5.3% | inhibition (ABL2 (human); compound 1.0 µM): 6.8% | inhibition (AKT1 (human); compound 0.1 µM): -1.3% | inhibition (AKT1 (human); compound 1.0 µM): 0.7% | inhibition (AKT2 (human); compound 0.1 µM): -0.1% | inhibition (AKT2 (human); compound 1.0 µM): -0.5% | inhibition (AKT3 (human); compound 0.1 µM): 6.4% | inhibition (AKT3 (human); compound 1.0 µM): -5.8% | inhibition (AURKB (human); compound 0.1 µM): 10.5% | inhibition (AURKB (human); compound 1.0 µM): 34.7% | inhibition (BMX (human); compound 0.1 µM): -7.2% | inhibition (BMX (human); compound 1.0 µM): 8.8% | inhibition (CAMK2D (human); compound 0.1 µM): -16.1% | inhibition (CAMK2D (human); compound 1.0 µM): -3.6% | inhibition (CAMK2G (human); compound 0.1 µM): -0.2% | inhibition (CAMK2G (human); compound 1.0 µM): -1.5% | inhibition (CDK2 (human); compound 0.1 µM): -6.3% | inhibition (CDK2 (human); compound 1.0 µM): -3.4% | inhibition (EGFR (human)): -5.8% | inhibition (FER (human)): -6.8% | inhibition ([2]; compound 0.1 µM): 2.5% | inhibition ([2]; compound 1.0 µM): 13.3% | inhibition (IKBKB (human); compound 0.1 µM): 1.4% | inhibition (IKBKB (human); compound 1.0 µM): -1.2% | inhibition (IRAK4 (human); compound 0.1 µM): -12% | inhibition (IRAK4 (human); compound 1.0 µM): 4.2% | inhibition (LYN (human); compound 0.1 µM): -7.4% | inhibition (LYN (human); compound 1.0 µM): 5.9% | inhibition (MAPK12 (human); compound 0.1 µM): -6.6% | inhibition (MAPK12 (human); compound 1.0 µM): 0.8% | inhibition (MAPKAPK2 (human); compound 0.1 µM): -14.7% | inhibition (MAPKAPK2 (human); compound 1.0 µM): -4.4% | inhibition (MAPKAPK3 (human); compound 0.1 µM): 1.8% | inhibition (MAPKAPK3 (human); compound 1.0 µM): -5.4% | inhibition (NEK2 (human); compound 0.1 µM): -5.7% | inhibition (NEK2 (human); compound 1.0 µM): -0.9% | inhibition (PAK2 (human); compound 0.1 µM): -38.4% | inhibition (PAK2 (human); compound 1.0 µM): -0.3% | inhibition (PIM1 (human); compound 0.1 µM): -3.6% | inhibition (PIM1 (human); compound 1.0 µM): -16.7% | inhibition (PRKCA (human); compound 0.1 µM): 21.9% | inhibition (PRKCA (human); compound 1.0 µM): -3% | inhibition (PRKCB1 (human)): 0.9% | inhibition (PRKCB2 (human); compound 0.1 µM): -4.2% | inhibition (PRKCB2 (human); compound 1.0 µM): -10.6% | inhibition (PRKCD (human); compound 0.1 µM): -36% | inhibition (PRKCD (human); compound 1.0 µM): 2.1% | inhibition (PRKCE (human); compound 0.1 µM): 6.5% | inhibition (PRKCE (human); compound 1.0 µM): 1.1% | inhibition (PRKD3 (human); compound 0.1 µM): -6.1% | inhibition (PRKD3 (human); compound 1.0 µM): 3.6% | inhibition (RPS6KA1 KD1 KD2 (human); compound 0.1 µM): -15.2% | inhibition (RPS6KA1 KD1 KD2 (human); compound 1.0 µM): -0.8% | inhibition (RPS6KA2 KD1 KD2 (human); compound 0.1 µM): 6.3% | inhibition (RPS6KA2 KD1 KD2 (human); compound 1.0 µM): 8.8% | inhibition (SGK2 (human); compound 0.1 µM): -0.4% | inhibition (SGK2 (human); compound 1.0 µM): -3.6% | inhibition (SRC (human); compound 0.1 µM): -0.3% | inhibition (SRC (human); compound 1.0 µM): 4.8% | inhibition (STK3 (human); compound 0.1 µM): 3.4% | inhibition (STK3 (human); compound 1.0 µM): 0.7% | inhibition (SYK (human); compound 0.1 µM): 1.2% | inhibition (SYK (human); compound 1.0 µM): -1.7%
